In ChEMBL document CHEMBL1909545, “Synthesis, biological assay in vitro and molecular docking studies of new Schiff base derivatives as potential urease inhibitors” (Eur J Med Chem, 2011):
Active and inactive are the calls of the source. The rule behind the calls is not given here.

The compounds below were run against Urease (Canavalia ensiformis, UniProt P07374) (assay: Inhibition of jack bean urease assessed as ammonia production after 30 mins by indophenol method). Settings: not given.
Sequence of Urease (P07374 whole entry): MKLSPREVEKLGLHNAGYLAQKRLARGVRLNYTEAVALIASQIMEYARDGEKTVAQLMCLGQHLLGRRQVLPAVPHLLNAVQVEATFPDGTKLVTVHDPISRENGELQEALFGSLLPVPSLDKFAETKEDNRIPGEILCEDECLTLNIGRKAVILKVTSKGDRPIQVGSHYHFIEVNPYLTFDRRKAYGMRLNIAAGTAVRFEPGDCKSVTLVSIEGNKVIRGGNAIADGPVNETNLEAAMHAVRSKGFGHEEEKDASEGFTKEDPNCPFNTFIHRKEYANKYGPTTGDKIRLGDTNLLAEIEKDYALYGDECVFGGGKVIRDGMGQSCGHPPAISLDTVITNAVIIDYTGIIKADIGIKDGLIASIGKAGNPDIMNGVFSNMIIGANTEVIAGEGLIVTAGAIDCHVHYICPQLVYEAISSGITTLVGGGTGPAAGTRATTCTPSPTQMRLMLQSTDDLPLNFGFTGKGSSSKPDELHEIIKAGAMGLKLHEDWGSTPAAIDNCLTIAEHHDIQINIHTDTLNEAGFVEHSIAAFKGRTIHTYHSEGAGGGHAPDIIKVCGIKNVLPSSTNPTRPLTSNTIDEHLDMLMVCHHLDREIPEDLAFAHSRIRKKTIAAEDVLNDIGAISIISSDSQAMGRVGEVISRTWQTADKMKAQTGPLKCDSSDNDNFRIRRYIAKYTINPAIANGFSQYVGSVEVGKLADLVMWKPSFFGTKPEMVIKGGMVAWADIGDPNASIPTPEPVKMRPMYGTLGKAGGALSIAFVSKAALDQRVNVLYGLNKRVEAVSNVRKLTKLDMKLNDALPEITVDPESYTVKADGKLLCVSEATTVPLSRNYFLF

Row | SMILES | IC50 [nM] | Ki [nM]
1 | COc1cccc(/C=N/NC(N)=S)c1 | 177 | 127
2 | N/C(S)=N/N=C/c1cccc([N+](=O)[O-])c1 | 102 | 90
3 | NC(=S)N/N=C/c1ccccc1Cl | 215 | 170
4 | C/C=C/C=N/NC(N)=S | 746 | 430
5 | NC(=S)N/N=C/C=C/c1ccccc1 | 457 | 407
6 | COc1cc(/C=N/NC(N)=S)cc(OC)c1OC | 989 | 910
7 | NC(=S)N/N=C/c1ccc(Br)cc1 | 707 | 770
8 | COc1cc(/C=N/NC(N)=S)cc(OC)c1O | 233 | 134
9 | NC(=S)N/N=C/c1cccc(Cl)c1 | 670 | 625
10 | NC(=S)N/N=C/c1ccc(O)cc1 | 682 | 391
11 | COc1ccc(/C=N/NC(N)=S)cc1OCc1ccccc1 | 330 | 191
12 | CN(C)c1ccc(/C=N/NC(N)=S)cc1 | 127 | 122
13 | N/C(S)=N/N=C/c1cccc(Br)c1 | 767 | 670
14 | COc1ccc(/C=N/NC(N)=S)cc1 | 887 | 807
15 | NC(N)=S [THIOUREA] | – | 19600
16 | N/C(S)=N/N=C/c1ccc([N+](=O)[O-])cc1 | 547 | 497
17 | NC(=S)N/N=C/c1ccc(Cl)cc1 | 410 | 398
18 | NC(=S)N/N=C/c1ccccc1OCc1ccccc1 | 263 | 152
19 | NC(=S)N/N=C/c1cccc(O)c1O | 220 | 127

Each compound was assayed against Urease (Canavalia ensiformis) (UniProt P07374). Settings: 0.01 to 0.001 uM.
Sequence of Urease (Canavalia ensiformis) (P07374 whole entry, looked up): as the sequence (P07374 whole entry) above

Row | SMILES | inhibition
20 | N/C(S)=N/N=C/c1cccc([N+](=O)[O-])c1 | Active
